From patent publication US4194009A, “Aryloxyphenylpropylamines for obtaining a psychotropic effect” (Eli Lilly and Company, priority 1976, dated 1980)

Key:
[1] = system: anesthetized cats; test: electrocardiogram (QRS complex) in anesthetized cats; conditions: intravenous injection
[2] = system: rats; test: prevention of brain serotonin depletion caused by 4-chloroamphetamine; type: in vivo, rat; conditions: in words
Description: Following this injection, the protecting drug was injected at a dose of 15 mg./kg. of rat-weight intraperitoneally and determinations of brain serotonin levels were carried out 4 hours later.

[3] = system: mice; test: reserpine hypothermia reversal test; type: in vivo; conditions: for reversal of reserpine hypothermia: in words
Description: (§1) The apomorphine hypothermia antagonism test is carried out as follows: mice are injected with a dose of apomorphine known to reduce body temperature approximately 4° C. The compound under test is injected 1/2 hour before the injection of the apomorphine and the temperatures measured 1/2 hour after injection. The degree of antagonism is expressed as a percent reduction (as compared with controls) of the temperature decrease produced by the injection of the apomorphine. The reserpine hypothermia reversal test is carried out as follows: groups of mice are injected with reserpine and 16.5 hours later are injected intraperitoneally with graded doses of the drug, a different dose level being given to each group of mice. Temperatures are measured at 1 hour after injection of the drug under test and again the effectiveness of the drug is expressed as a percentage decrease in the hypothermia induced by the injection of reserpine as compared with the control group. In the tables which follow, Table 4 gives the results in the apomorphine antagonism and reserpine reversal hypothermia tests for the secondary amines of this invention. In the table, the first column gives the substituent attached to the oxygen atom at the 3 position of the propylamine chain; columns 2 to 4 the percent antagonism against apomorphine hypothermia at dose levels of 0.3, 1 and 3 mg./kg. and columns 5-7 the percent reversal of reserpine hypothermia at the same dose levels.

[4] = system: mice; test: apomorphine hypothermia antagonism test; type: in vivo; conditions: for antagonism of apomorphine hypothermia: in words
Description: as §1

[5] = system: isolated muscle strips; test: antihistaminic effect in isolated muscle strips; type: cell-based
[6] = system: isolated muscle strips; test: antiserotonin effect in isolated muscle strips; type: cell-based
[7] = system: isolated muscle strips; test: anticholinergic effect in isolated muscle strips; type: cell-based
[8] = system: pigeons; test: operant behavior, fixed-ratio, fixed interval schedule in pigeons; type: in vivo
[9] = prevention of brain monoamine depletion caused by α-ethyl-4-methyl-m-tyramine; type: in vivo; conditions: in words
[10] = system: dopamine uptake by synaptosomes from rat brain; test: blockage of dopamine uptake by synaptosomes from rat brain; type: biochemical
From the text: (§2) This blockade is shown both in vitro with radioactive labelled compounds to determine the amount of monoamine uptake by synaptosomes from rat brain, and in vivo by a variety of methods. Among the physiologically active monoamines whose uptake is blocked by the compounds of this invention are included serotonin, norepinephrine and dopamine (3,4-dihydroxyphenylethylamine). […] Tables 1 and 2 which follow set forth the results of some of the in vitro determinations of the blockage of monoamine uptake by the compounds of this invention. In the tables, column 1 gives the R substituent on the 3-phenylpropylamine and columns 2-4, the concentration in micrograms per ml. that blocks the uptake of a particular amine by 50 percent for the amines--norephinephrine, serotonin, and dopamine. At the head of each column is given the concentration of the particular monoamine used in the experiment.

[11] = system: norepinephrine uptake by synaptosomes from rat brain; test: blockage of norepinephrine uptake by synaptosomes from rat brain; type: biochemical
From the text: as §2

[12] = system: serotonin uptake by synaptosomes from rat brain; test: blockage of serotonin uptake by synaptosomes from rat brain; type: biochemical; conditions: Table 1, serotonin 0.1 μM
From the text: In the tables, column 1 gives the R substituent on the 3-phenylpropylamine and columns 2-4, the concentration in micrograms per ml. that blocks the uptake of a particular amine by 50 percent for the amines--norephinephrine, serotonin, and dopamine. At the head of each column is given the concentration of the particular monoamine used in the experiment.

[13] = Table 1, norepinephrine 0.48 μM
[14] = Table 5, mice, 3 mg./kg. intraperitoneally
[15] = Table 5, mice, 10 mg./kg. intraperitoneally

Q: For `COc1ccccc1OC(CCN)c1ccccc1` (stereo not shown) [3-(o-Methoxyphenoxy)-3-phenylpropylamine, 3-(o-methoxyphenoxy)-3-phenylpropylamine], which “widening of the QRS complex of the electrocardiogram” value [1] is on record?
A: affects the electrocardiogram similarly, but at far higher doses

Q: Which “prevention of serotonin depletion caused by 4-chloroamphetamine” value (from here on “prevention of serotonin depletion caused”) [2] does the source give for `NCCC(Oc1ccc(C(F)(F)F)cc1)c1ccccc1.O=C(O)C(=O)O` (stereo not shown) [3-(p-trifluoromethylphenoxy)-3-phenylpropylamine oxalate] here?
A: gave similar results

Q: For `CN(C)CCC=C1c2ccccc2CCc2ccccc21` [amitriptyline, reference compound], which “reversal of reserpine hypothermia” value [3] is on record?
A: active

Q: And the “antagonism of apomorphine hypothermia” value [4]?
A: active

Q: And the “widening of the QRS complex of the electrocardiogram” value [1]?
A: causes a widening of the QRS complex

Q: Which results are given for `CNCCCN1c2ccccc2CCc2ccccc21` [desmethylimipramine]?
A: reversal of reserpine hypothermia [3]: active; antagonism of apomorphine hypothermia [4]: active; antihistaminic potency relative to N-methyl 3-(o-methoxyphenoxy)-3-phenylpropylamine [5]: 150 times; antiserotonin potency relative to N-methyl 3-(o-methoxyphenoxy)-3-phenylpropylamine [6]: three times more potent; anticholinergic potency relative to N-methyl 3-(o-methoxyphenoxy)-3-phenylpropylamine [7]: 150 times

Q: Which “persistence of the effect on response rates” value [8] does the source give for `CNCCC(Oc1ccccc1OC)c1ccccc1` (stereo not shown) [o-anisyl, N-methyl 3-(o-methoxyphenoxy)-3-phenylpropylamine] here?
A: more than 24 hours

Q: For `CNCCC(Oc1ccc(C(F)(F)F)cc1)c1ccccc1` (stereo not shown) [p-trifluoromethylpenyl, N-methyl 3-(p-trifluoromethylphenoxy)-3-phenylpropylamine], which “depletion of norepinephrine by α-ethyl-4-methyl-m-tyramine” value [9] is on record?
A: not the depletion of norepinephrine

Q: What about the “depletion of serotonin in the brain by α-ethyl-4-methyl-m-tyramine” value [9] of the same molecule?
A: prevented the depletion of serotonin in the brain

Q: And the “Concentration in mcg./ml. that blocks 50% of amine uptake, Dopamine” value ([10]; Table 2, dopamine 0.2 μM)?
A: > 100 µg/mL

Q: What about the “prevention of serotonin depletion caused” value [2] of the same molecule?
A: prevented the depletion of serotonin

Q: And the “Concentration in mcg./ml. that blocks 50% of amine uptake, Norepinephrine” value ([11]; Table 2, norepinephrine 0.48 μM)?
A: 20 µg/mL

Q: Which inhibition in vivo at 3 mg/kg ([3]; Mus musculus, ip, 1 h, Table 5, mice, 3 mg./kg. intraperitoneally, read-out: Percent Antagonism Reserpine Post-60 min.) does the source give for `CN(C)CCC(Oc1ccc(C(F)(F)F)cc1)c1ccccc1` (stereo not shown) [p-trifluoromethylphenyl, N,N-dimethyl 3-(p-trifluoromethylphenoxy)-3-phenylpropylamine] here?
A: 20%

Q: And the inhibition in vivo at 1 mg/kg ([4]; Mus musculus, Table 4, mice, 1 mg./kg., read-out: Percent Antagonism Apomorphine Pre-30 min.)?
A: 11%

Q: What about the inhibition in vivo at 3 mg/kg ([4]; Mus musculus, Table 4, mice, 3 mg./kg., read-out: Percent Antagonism Apomorphine Pre-30 min.) of the same molecule?
A: 25%

Q: And the inhibition in vivo at 3 mg/kg ([4]; Mus musculus, Table 5, mice, 3 mg./kg., read-out: Percent Antagonism Apomorphine Pre-30 min.)?
A: 24%

Q: And the “Concentration in mcg./ml. that blocks 50% of amine uptake, Dopamine” value ([10]; Table 1, dopamine 0.2 μM)?
A: > 100 µg/mL

Q: What about the “prevention of serotonin depletion caused” value [2] of the same molecule?
A: gave similar results

Q: What about the “Concentration in mcg./ml. that blocks 50% of amine uptake, Norepinephrine” value [11, 13] of the same molecule?
A: 70 µg/mL

Q: What about the “Concentration in mcg./ml. that blocks 50% of amine uptake, Serotonin” value [12] of the same molecule?
A: .16 µg/mL

Q: For `CN(C)CCC(Oc1ccccc1)c1ccccc1` (stereo not shown) [phenyl], which “Percent Antagonism Reserpine Post-60 min.” value [3, 14] is on record?
A: 20%

Q: What about the “Percent Antagonism Reserpine Post-60 min.” value [3, 15] of the same molecule?
A: 49%

Q: What about the “Percent Antagonism Apomorphine Pre-30 min.” value ([4]; Table 5, mice, 3 mg./kg.) of the same molecule?
A: 3%

Q: And the “Percent Antagonism Apomorphine Pre-30 min.” value ([4]; Table 5, mice, 10 mg./kg.)?
A: 54%

Q: And the “Concentration in mcg./ml. that blocks 50% of amine uptake, Dopamine” value ([10]; Table 1, dopamine 0.2 μM)?
A: .3 µg/mL

Q: And the “Concentration in mcg./ml. that blocks 50% of amine uptake, Norepinephrine” value [11, 13]?
A: 1 µg/mL

Q: And the “Concentration in mcg./ml. that blocks 50% of amine uptake, Serotonin” value [12]?
A: .6 µg/mL

Q: Which results are given for `CN(C)CCC(Oc1cccc2ccccc12)c1ccccc1` (stereo not drawn) [α-naphthyl, N,N-dimethyl 3-(α-naphthyloxy)-3-phenylpropylamine]?
A: Percent Antagonism Reserpine Post-60 min. ([3]; Table 5, mice, 1 mg./kg. intraperitoneally): 15%; Percent Antagonism Reserpine Post-60 min. [3, 14]: 4%; Percent Antagonism Reserpine Post-60 min. [3, 15]: 15%; Percent Antagonism Apomorphine Pre-30 min. ([4]; Table 5, mice, 1 mg./kg.): -17%; Percent Antagonism Apomorphine Pre-30 min. ([4]; Table 5, mice, 3 mg./kg.): -10%; Percent Antagonism Apomorphine Pre-30 min. ([4]; Table 5, mice, 10 mg./kg.): -7%; Concentration in mcg./ml. that blocks 50% of amine uptake, Dopamine ([10]; Table 1, dopamine 0.2 μM): 2.5 µg/mL; Concentration in mcg./ml. that blocks 50% of amine uptake, Norepinephrine [11, 13]: 3 µg/mL; Concentration in mcg./ml. that blocks 50% of amine uptake, Serotonin [12]: .03 µg/mL
